Assay results: ChEMBL document CHEMBL5233275, “Effect of Flexibility, Lipophilicity, and the Location of Polar Residues on the Passive Membrane Permeability of a Series of Cyclic Decapeptides” (J Med Chem, 2021)
Values after ≈ are worked out from the molar mass of the structure shown. Where a SMILES comes first, the peptide text is derived from it. [ ]: non-standard residue; d: D form. NMeF = CN[C@@H](Cc1ccccc1)C(=O)O; NMeA = CN[C@@H](C)C(=O)O; dNMeA = CN[C@H](C)C(=O)O; Sar = CNCC(=O)O

Legend:
Format in all cases: physicochemical
[1] = Decadiene/water partition coefficient, logD of compound at pH 7.4 by HPLC analysis
[2] = Solubility of the compound by high-throughput equilibrium solubility assay
[3] = Octanol/water partition coefficient, logD of compound at pH 7.4 by HPLC analysis

| SMILES | logD hydrocarbon water [1] | solubility thermodynamic [2] [µM] | logD [3] |
| --- | --- | --- | --- |
| CC(C)C[C@@H]1NC(=O)[C@H]([C@@H](C)O)N(C)C(=O)[C@H]2CCCN2C(=O)[C@H](CC(C)C)NC(=O)[C@H]([C@@H](C)O)N(C)C(=O)[C@H](CC(C)C)NC(=O)[C@H](C)N(C)C(=O)[C@H]2CCCN2C(=O)[C@H](CC(C)C)NC(=O)[C@H]([C@@H](C)O)N(C)C1=O | 0.4 | 827 (≈ 891 µg/mL) |  |
| CC(C)C[C@@H]1NC(=O)[C@H](C)N(C)C(=O)[C@H]2CCCN2C(=O)[C@H](CC(C)C)NC(=O)[C@H](C)N(C)C(=O)[C@H]([C@@H](C)O)NC(=O)[C@H](C)N(C)C(=O)[C@H]2CCCN2C(=O)[C@H](CC(C)C)NC(=O)[C@H](C)N(C)C1=O | 0.4 | > 1000 | 2.7 |
| CC(C)C[C@@H]1NC(=O)[C@H](C)N(C)C(=O)[C@H]2CCCN2C(=O)[C@H](CC(C)C)NC(=O)[C@H](C)N(C)C(=O)[C@H](CC(C)C)NC(=O)[C@H]([C@@H](C)O)N(C)C(=O)[C@H]2CCCN2C(=O)[C@H](CC(C)C)NC(=O)[C@H]([C@@H](C)O)N(C)C1=O | 1.2 | > 1000 |  |
| CC(C)C[C@@H]1NC(=O)[C@H]([C@@H](C)O)N(C)C(=O)[C@H]2CCCN2C(=O)[C@H](CC(C)C)NC(=O)[C@H](C)N(C)C(=O)[C@H](CC(C)C)NC(=O)[C@H](Cc2ccccc2)N(C)C(=O)[C@H]2CCCN2C(=O)[C@H](CC(C)C)NC(=O)[C@H](C)N(C)C1=O | 3.7 | 65 (≈ 71.1 µg/mL) | 5.7 |
| CC(C)C[C@@H]1NC(=O)[C@H](C)N(C)C(=O)[C@H](CC(C)C)NC(=O)[C@H]2CCCN2C(=O)[C@@H]2CCCN2C(=O)[C@H](CC(C)C)NC(=O)[C@H](C)N(C)C(=O)[C@H](CC(C)C)NC(=O)[C@H](C(C)C)N(C)C(=O)[C@@H](C)N(C)C1=O | 3.1 | 92 (≈ 93.4 µg/mL) | 5.1 |
| CC(C)C[C@@H]1NC(=O)[C@H](C)N(C)C(=O)[C@H]2CCCN2C(=O)[C@H](CC(C)C)NC(=O)[C@H](C)N(C)C(=O)[C@H](CC(C)C)NC(=O)[C@H](C)N(C)C(=O)[C@H]2CCCN2C(=O)[C@H]([C@@H](C)O)NC(=O)[C@H](C)N(C)C1=O | 0.1 | > 1000 | 2.6 |
| CC(C)C[C@@H]1NC(=O)[C@H](Cc2ccccc2)N(C)C(=O)[C@H]2CCCN2C(=O)[C@H](CC(C)C)NC(=O)[C@H](C)N(C)C(=O)[C@H]([C@@H](C)O)NC(=O)[C@H](Cc2ccccc2)N(C)C(=O)[C@H]2CCCN2C(=O)[C@H](CC(C)C)NC(=O)[C@H](C)N(C)C1=O | 4 | 15 (≈ 16.9 µg/mL) | 5.4 |
| CC(C)C[C@@H]1NC(=O)[C@H](C(C)C)N(C)C(=O)[C@H]2CCCN2C(=O)[C@H](CC(C)C)NC(=O)[C@H](C)N(C)C(=O)[C@H](CC(C)C)NC(=O)[C@H](C(C)C)N(C)C(=O)[C@H]2CCCN2C(=O)[C@H](CC(C)C)NC(=O)[C@H](C)N(C)C1=O | 3.8 | 57 (≈ 59.5 µg/mL) | 5.1 |
| CC(C)C[C@@H]1NC(=O)[C@H]([C@@H](C)O)N(C)C(=O)[C@@H]2C[C@@H](O)CN2C(=O)[C@H](CC(C)C)NC(=O)[C@H](C)N(C)C(=O)[C@H](CC(C)C)NC(=O)[C@H](Cc2ccccc2)N(C)C(=O)[C@@H]2C[C@@H](O)CN2C(=O)[C@H](CC(C)C)NC(=O)[C@H](C)N(C)C1=O | -0.6 | 320 (≈ 360 µg/mL) | 4.7 |
| CC(C)C[C@@H]1NC(=O)[C@H](C)N(C)C(=O)[C@H]2CCCN2C(=O)[C@H](CC(C)C)NC(=O)[C@H](C)N(C)C(=O)[C@H](CC(C)C)NC(=O)[C@H](C)N(C)C(=O)[C@H]2CCCN2C(=O)[C@H](CC(C)C)NC(=O)[C@H]([C@@H](C)O)N(C)C1=O | 1.7 | 763 (≈ 776 µg/mL) |  |
| CC(C)C[C@@H]1NC(=O)[C@H]([C@@H](C)O)N(C)C(=O)[C@H]2CCCN2C(=O)[C@H](CC(C)C)NC(=O)[C@H](C)N(C)C(=O)[C@H](CC(C)C)NC(=O)[C@H]([C@@H](C)O)N(C)C(=O)[C@H]2CCCN2C(=O)[C@H](CC(C)C)NC(=O)[C@H](C)N(C)C1=O | 1.2 | 884 (≈ 926 µg/mL) | 3.8 |
| CC(C)C[C@@H]1NC(=O)[C@H](Cc2ccccc2)N(C)C(=O)[C@H]2CCCN2C(=O)[C@H](CC(C)C)NC(=O)[C@H](C)N(C)C(=O)[C@H](CC(C)C)NC(=O)[C@H](Cc2ccccc2)N(C)C(=O)[C@H]2CCCN2C(=O)[C@H](CC(C)C)NC(=O)[C@H]([C@@H](C)O)N(C)C1=O | 5 | 4 (≈ 4.68 µg/mL) | 5.7 |
| CC(C)C[C@@H]1NC(=O)[C@H](Cc2ccccc2)N(C)C(=O)[C@H]2CCCN2C(=O)[C@H](CC(C)C)NC(=O)[C@H](C)N(C)C(=O)[C@H](CC(C)C)NC(=O)[C@H](Cc2ccccc2)N(C)C(=O)[C@H]2CCCN2C(=O)[C@H]([C@@H](C)O)NC(=O)[C@H](C)N(C)C1=O | 3.6 | 20 (≈ 22.5 µg/mL) | 5.1 |
| CC(C)C[C@@H]1NC(=O)[C@@H]2CCCN2C(=O)[C@H]2CCCN2C(=O)[C@H](CC(C)C)NC(=O)[C@H](C)N(C)C(=O)[C@H](CC(C)C)NC(=O)[C@@H]2CCCN2C(=O)[C@H]2CCCN2C(=O)[C@H](CC(C)C)NC(=O)[C@H](C)N(C)C1=O | 1.6 | 220 (≈ 222 µg/mL) | 4.3 |
| CC(C)C[C@@H]1NC(=O)[C@H]([C@@H](C)O)N(C)C(=O)[C@H]2CCCN2C(=O)[C@H](CC(C)C)NC(=O)[C@H]([C@@H](C)O)N(C)C(=O)[C@H](CC(C)C)NC(=O)[C@H]([C@@H](C)O)N(C)C(=O)[C@H]2CCCN2C(=O)[C@H](CC(C)C)NC(=O)[C@H]([C@@H](C)O)N(C)C1=O | -0.8 | > 1000 |  |
| CC(C)C[C@@H]1NC(=O)[C@H](C)N(C)C(=O)[C@H]2CCCN2C(=O)[C@H](CC(C)C)NC(=O)[C@H](C)N(C)C(=O)[C@H](CC(C)C)NC(=O)[C@H](C)N(C)C(=O)[C@@H]2C[C@@H](O)CN2C(=O)[C@H](CC(C)C)NC(=O)[C@H](C)N(C)C1=O | 0.2 | 910 (≈ 913 µg/mL) | 4.1 |
| CC(C)C[C@@H]1NC(=O)[C@H](C(C)C)N(C)C(=O)[C@H]2CCCN2C(=O)[C@H](CC(C)C)NC(=O)[C@@H](C)N(C)C(=O)[C@H](CC(C)C)NC(=O)[C@H](C(C)C)N(C)C(=O)[C@H](C)N(C)C(=O)[C@H](CC(C)C)NC(=O)[C@@H](C)N(C)C1=O | 4 | 220 (≈ 227 µg/mL) | 5.2 |
| CC(C)C[C@@H]1NC(=O)[C@H](C)N(C)C(=O)[C@H](CC(C)C)NC(=O)[C@H](C(C)C)N(C)C(=O)[C@@H](C)N(C)C(=O)[C@H](CC(C)C)NC(=O)[C@H](C)N(C)C(=O)[C@H](CC(C)C)NC(=O)[C@H](C(C)C)N(C)C(=O)[C@@H](C)N(C)C1=O | 3.8 | 560 (≈ 571 µg/mL) | 5.2 |
| CC(C)C[C@@H]1NC(=O)[C@H](C)N(C)C(=O)[C@H]2CCCN2C(=O)[C@H](CC(C)C)NC(=O)[C@H](C)N(C)C(=O)[C@H](CC(C)C)NC(=O)[C@H](C)N(C)C(=O)[C@H]2CCCN2C(=O)[C@H](CC(C)C)NC(=O)[C@H](C)N(C)C1=O | 2.5 | 794 (≈ 784 µg/mL) | 4.7 |
| CC(C)C[C@@H]1NC(=O)[C@H](C)N(C)C(=O)[C@H]2CCCN2C(=O)[C@H](CC(C)C)NC(=O)[C@H]([C@@H](C)O)N(C)C(=O)[C@H](CC(C)C)NC(=O)[C@H](C)N(C)C(=O)[C@H]2CCCN2C(=O)[C@H](CC(C)C)NC(=O)[C@H]([C@@H](C)O)N(C)C1=O | 1 | 445 (≈ 466 µg/mL) |  |
| CC(C)C[C@@H]1NC(=O)[C@H](C)N(C)C(=O)[C@H](CC(C)C)NC(=O)[C@@H]2CCCN2C(=O)CN(C)C(=O)[C@H](CC(C)C)NC(=O)[C@H](C)N(C)C(=O)[C@H](CC(C)C)NC(=O)[C@@H]2CCCN2C(=O)CN(C)C1=O (cyclo(L[NMeA]L[Sar]PL[NMeA]L[Sar]P)) | 0.3 | > 1000 |  |
| CC(C)C[C@@H]1NC(=O)[C@H](C)N(C)C(=O)[C@H](CC(C)C)NC(=O)[C@H](C)N(C)C(=O)[C@@H](C)N(C)C(=O)[C@H](CC(C)C)NC(=O)[C@H](C)N(C)C(=O)[C@H](CC(C)C)NC(=O)[C@H](C)N(C)C(=O)[C@@H](C)N(C)C1=O (cyclo(L[NMeA]L[dNMeA][NMeA]L[NMeA]L[dNMeA][NMeA])) | 2.7 | 477 (≈ 459 µg/mL) | 4.6 |
| CC(C)C[C@@H]1NC(=O)[C@H](C)N(C)C(=O)[C@H](CC(C)C)NC(=O)[C@H](Cc2ccccc2)N(C)C(=O)[C@@H](C)N(C)C(=O)[C@H](CC(C)C)NC(=O)[C@H](C)N(C)C(=O)[C@H](CC(C)C)NC(=O)[C@H](Cc2ccccc2)N(C)C(=O)[C@@H](C)N(C)C1=O (cyclo(L[NMeA]L[dNMeA][NMeF]L[NMeA]L[dNMeA][NMeF])) | 5.1 | 4 (≈ 4.46 µg/mL) |  |
| CC(C)C[C@@H]1NC(=O)[C@H](Cc2ccccc2)N(C)C(=O)[C@H]2CCCN2C(=O)[C@H](CC(C)C)NC(=O)[C@H](C)N(C)C(=O)[C@H](CC(C)C)NC(=O)[C@H](Cc2ccccc2)N(C)C(=O)[C@H]2CCCN2C(=O)[C@H](CC(C)C)NC(=O)[C@H](C)N(C)C1=O (cyclo(L[NMeA]L[dP][NMeF]L[NMeA]L[dP][NMeF])) | > 3.5 | 4 (≈ 4.56 µg/mL) | > 5.7 |
